This is an account of results in patent US10501479B2, “Benzenesulfonyl-asymmetric ureas and medical uses thereof” (HELSINN HEALTHCARE SA, priority 2016, dated 2019).

Structures are written as SMILES. Read-outs that look alike come from different tables or passages of the source. Where only a bound is given, the exact number is not on record here.

Series [1] deals with T1, GHSR-1a (HEK293/GHSR1a cell line) (Homo sapiens, UniProt Q92847).
T1 construct: expressed in transfected cells; host or cells: HEK293/GHSR1a cell line
Description: Ghrelin antagonist potency (IC50) with calcium FLIPR assay, ghrelin 10 nM. Type of series: cell-based. In short, it runs like this: (§1)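 The cells were plated a day ahead and loaded with a calcium-sensitive dye. Test compound was then added and incubated 15 min, followed by ghrelin. Antagonist potency was calculated from inhibition of the response to 10 nM ghrelin, and agonist potency from the calcium rise caused by compound alone.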

Series [2] has as its target T1, GHSR-1a (HEK293/GHSR1a cell line). As to the kind of experiment: Ghrelin agonist potency (EC50) with calcium FLIPR assay. Type of series: cell-based. The essentials:
as §1

Series [3] is described as follows: Metabolic stability in mouse liver microsomes. Type of series: in vitro ADME. In short, it runs like this:
(§2)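 First, microsomes and compound are preincubated 5 min at 37 °C in pH 7.4 phosphate buffer. Next, an NADPH regenerating system starts the reaction. Then aliquots are quenched cold at 10, 30 and 90 min, centrifuged and analysed by LC-MS/MS.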
On the technique in general: Liver microsomes are a subcellular fraction often used to study metabolism.

Series [4] concerns the target T2, recombinant human ghrelin receptor (HEK293/GRLN) (Homo sapiens, UniProt Q92847).
T2 construct: expressed in transfected cells
As to the kind of experiment: Ghrelin inverse agonist potency (EC50) with IP-1 (IP-One HTRF) assay. Type of series: cell-based. Conditions: IP-1 assay. In short, it runs like this: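 IP-1 accumulation was measured by HTRF (IP1-d2/Tb-cryptate, 620/665 nm read after 1 hour at room temperature) following 1 hour of compound treatment at 37° C. Cells were HEK293 stably expressing human ghrelin receptor, plated a day earlier on Matrigel. Inverse agonist potency was reported as EC50.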
(In general: TR-FRET usually uses a lanthanide donor and a delayed reading to cut background.)

A short description of series [5]: Metabolic stability in human liver microsomes. Format: in vitro ADME. In short, it runs like this: as §2
Setting [6] is: ghrelin antagonist potency, read-out: Activity IC50.
[7] abbreviates: ghrelin agonist potency, read-out: Activity EC50/EMax.
[8] abbreviates: ghrelin inverse agonist potency, read-out: Activity EC50.

T2 sequence (Q92847 whole entry): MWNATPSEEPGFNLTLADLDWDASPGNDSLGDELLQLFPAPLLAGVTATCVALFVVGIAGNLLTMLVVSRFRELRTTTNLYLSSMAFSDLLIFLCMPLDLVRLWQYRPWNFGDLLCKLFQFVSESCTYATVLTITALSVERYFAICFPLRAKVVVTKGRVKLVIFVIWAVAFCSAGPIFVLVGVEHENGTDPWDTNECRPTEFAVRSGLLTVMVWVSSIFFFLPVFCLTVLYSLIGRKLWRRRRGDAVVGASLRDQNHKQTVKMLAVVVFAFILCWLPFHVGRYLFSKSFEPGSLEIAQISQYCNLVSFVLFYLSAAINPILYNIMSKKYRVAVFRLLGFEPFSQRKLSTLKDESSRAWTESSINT
T1 sequence (Q92847 whole entry): as above

On to `COc1cccc(F)c1C(C)NC(=O)Nc1ccc(S(=O)(=O)Cc2ccc3c(c2)CNC3)cc1` (stereo not drawn) [H1455, 1-(1-(2-fluoro-6-methoxyphenyl)ethyl)-3-(4-((isoindolin-5-ylmethyl)sulfonyl)phenyl)urea], for which the IC50 in series [1] (HEK293/GHSR1a, ghrelin 10 nM, read-out: Activity IC50 (ghrelin antagonist potency)) was determined as 42.5 nM. The EC50 in series [2] (HEK293/GHSR1a, read-out: Activity EC50/EMax: EC50 (ghrelin agonist potency)) is over 30000 nM; in series [4] (HEK293/GRLN, read-out: Activity EC50 (ghrelin inverse agonist potency)), 5.2 nM. Further, the “Metabolic Stability Study M = mouse” value in series [3] was found to be 56.9 µL/min/mg. For the same molecule, the “Metabolic Stability Study H = human” value in series [5] came to 55.5 µL/min/mg.

With `CC(NC(=O)Nc1ccc(S(=O)(=O)Cc2ccc3c(c2)CN(C)C3)cc1Cl)c1ccccc1` (stereo not drawn) [H1456, 1-(2-chloro-4-(((2-methylisoindolin-5-yl)methyl)sulfonyl)phenyl)-3-(1-phenylethyl)urea], the IC50 in series [1] (setting [6]) amounted to 109 nM. In addition, the values for the EC50 in series [2] (setting [7]) and in series [4] (setting [8]) were over 30000 nM and 6.2 nM, respectively. The “Metabolic Stability Study M = mouse” value in series [3] was found to be 137.8 µL/min/mg. Also, the “Metabolic Stability Study H = human” value in series [5] was determined as 160.6 µL/min/mg.

Turning to `COC(=O)c1cc(S(=O)(=O)Cc2ccc3c(c2)CNC3)ccc1NC(=O)NC(C)c1ccccc1` (stereo not drawn) [H1459, methyl 5-((isoindolin-5-ylmethyl)sulfonyl)-2-(3-(1-phenylethyl)ureido)benzoate], the IC50 in series [1] (setting [6]) came to 11.5 nM. The EC50 in series [2] (setting [7]) was over 30000 nM; in series [4] (setting [8]), 8.4 nM. Moreover, the “Metabolic Stability Study M = mouse” value in series [3] was found to be 49.3 µL/min/mg. For the same molecule, the “Metabolic Stability Study H = human” value in series [5] is 53.7 µL/min/mg.

With `COc1cc(NC(=O)NC(C)c2ccccc2)ccc1S(=O)(=O)Cc1ccc2c(c1)CN(C)C2` (stereo not drawn) [H1462, 1-(3-methoxy-4-(((2-methylisoindolin-5-yl)methyl)sulfonyl)phenyl)-3-(1-phenylethyl)urea], the IC50 in series [1] (setting [6]) stood at 13.8 nM. The EC50 was over 30000 nM in series [2] (setting [7]) and 6.24 nM in series [4] (setting [8]). Further, the “Metabolic Stability Study M = mouse” value in series [3] is 15.8 µL/min/mg. Also, the “Metabolic Stability Study H = human” value in series [5] was found to be 76.1 µL/min/mg.

Consider `COc1cc(S(=O)(=O)Cc2ccc3c(c2)CCNC3)ccc1NC(=O)N[C@@H](C)c1cccc(Cl)c1Cl` [H1482, (S)-1-(1-(2,3-dichlorophenyl)ethyl)-3-(2-methoxy-4-(((1,2,3,4-tetrahydroisoquinolin-6-yl)methyl)sulfonyl)phenyl)urea], for which the IC50 in series [1] (setting [6]) was 0.282 nM. Besides, the results for the EC50 in series [2] (setting [7]) and in series [4] (setting [8]) were over 30000 nM and 0.4 nM, respectively. Besides, in series [3], the “Metabolic Stability Study M = mouse” value amounted to 12.5 µL/min/mg. In addition, the “Metabolic Stability Study H = human” value in series [5] was under 10 µL/min/mg.

As for `CC(NC(=O)Nc1ccc(S(=O)(=O)Cc2ccc3c(c2)CNC3)cc1C1CC1)c1ccccc1` (stereo not drawn) [H1484, 1-(2-cyclopropyl-4-((isoindolin-5-ylmethyl)sulfonyl)phenyl)-3-(1-phenylethyl)urea], in series [1] (setting [6]), the IC50 worked out at 21.7 nM. The results for the EC50 in series [2] (setting [7]) and in series [4] (setting [8]) were over 30000 nM and 7.1 nM, respectively. Also, in series [3], the “Metabolic Stability Study M = mouse” value worked out at 149.3 µL/min/mg. The “Metabolic Stability Study H = human” value in series [5] was determined as 116.7 µL/min/mg.

`CC(NC(=O)Nc1ccc(S(=O)(=O)Cc2ccc3c(c2)CN(C)C3)c(O)c1)c1ccccc1.O=C(O)C(F)(F)F` (stereo not drawn) [H1487, 1-(3-hydroxy-4-(((2-methylisoindolin-5-yl)methyl)sulfonyl)phenyl)-3-(1-phenylethyl)urea]: the IC50 in series [1] (setting [6]) stood at 18.7 nM. Moreover, the EC50 in series [2] (setting [7]) is over 30000 nM; in series [4] (setting [8]) it was 5.7 nM. In series [3], the “Metabolic Stability Study M = mouse” value turned out to be 16.9 µL/min/mg. In addition, in series [5], the “Metabolic Stability Study H = human” value worked out at 26.1 µL/min/mg.

For `COC(=O)c1cc(NC(=O)NC(C)c2ccccc2)ccc1S(=O)(=O)Cc1ccc2c(c1)CNC2` (stereo not drawn) [H1505, methyl 2-((isoindolin-5-ylmethyl)sulfonyl)-5-(3-(1-phenylethyl)ureido)benzoate], in series [1] (setting [6]), the IC50 stood at 8.28 nM. Besides, the EC50 is over 30000 nM in series [2] (setting [7]) and 11.7 nM in series [4] (setting [8]). Also, the “Metabolic Stability Study M = mouse” value in series [3] was 135.5 µL/min/mg. In series [5], the “Metabolic Stability Study H = human” value worked out at 37.3 µL/min/mg.

As to `CC(NC(=O)Nc1ccc(S(=O)(=O)Cc2ccc3c(c2)CNC3)c(C2CC2)c1)c1ccccc1` (stereo not drawn) [H1506, 1-(3-cyclopropyl-4-((isoindolin-5-ylmethyl)sulfonyl)phenyl)-3-(1-phenylethyl)urea], the IC50 in series [1] (setting [6]) stood at 2.28 nM. In addition, the EC50 in series [2] (setting [7]) is over 30000 nM; in series [4] (setting [8]), 4.2 nM. In addition, in series [3], the “Metabolic Stability Study M = mouse” value was 132.5 µL/min/mg. For the same molecule, the “Metabolic Stability Study H = human” value in series [5] was found to be 49.2 µL/min/mg.

With `CC(c1cccc(Cl)c1Cl)N(O)C(=O)Nc1ccc(S(=O)(=O)Cc2ccc3c(c2)CNC3)cc1.O=C(O)C(F)(F)F` (stereo not drawn) [H1509, 1-(1-(2,3-dichlorophenyl)ethyl)-1-hydroxy-3-(4-((isoindolin-5-ylmethyl)sulfonyl)phenyl)urea], the IC50 in series [1] (setting [6]) came to 0.336 nM. The EC50 is over 30000 nM in series [2] (setting [7]) and 1 nM in series [4] (setting [8]). In series [3], the “Metabolic Stability Study M = mouse” value came out at 16.0 µL/min/mg. The “Metabolic Stability Study H = human” value in series [5] came out at 15.9 µL/min/mg.

For `COc1cc(NC(=O)N(O)C(C)c2ccccc2F)ccc1S(=O)(=O)Cc1ccc2c(c1)CNC2` (stereo not drawn) [H1510, 1-(1-(2-fluorophenyl)ethyl)-1-hydroxy-3-(4-((isoindolin-5-ylmethyl)sulfonyl)-3-methoxyphenyl)urea], in series [1] (setting [6]), the IC50 came out at 5.36 nM. Further, the EC50 in series [2] (setting [7]) is over 30000 nM; in series [4] (setting [8]), 3.5 nM. Besides, in series [3], the “Metabolic Stability Study M = mouse” value turned out to be 18.4 µL/min/mg. The “Metabolic Stability Study H = human” value in series [5] turned out to be 23.8 µL/min/mg.

On to `COc1cc(NC(=O)N(O)C(C)c2ccccc2F)ccc1S(=O)(=O)Cc1ccc2c(c1)CN(C)C2` (stereo not drawn) [H1511, 1-(1-(2-fluorophenyl)ethyl)-1-hydroxy-3-(3-methoxy-4-(((2-methylisoindolin-5-yl)methyl)sulfonyl)phenyl)urea], for which the IC50 in series [1] (setting [6]) came to 6.04 nM. In addition, the EC50 is over 30000 nM in series [2] (setting [7]) and 5.2 nM in series [4] (setting [8]). Besides, the “Metabolic Stability Study M = mouse” value in series [3] came out at 44.5 µL/min/mg. In series [5], the “Metabolic Stability Study H = human” value turned out to be 94.2 µL/min/mg.

Consider `COc1cc(NC(=O)N(O)C(C)c2ccccc2)ccc1S(=O)(=O)Cc1ccc2c(c1)CNC2` (stereo not drawn) [H1515, 1-hydroxy-3-(4-((isoindolin-5-ylmethyl)sulfonyl)-3-methoxyphenyl)-1-(1-phenylethyl)urea], for which the IC50 in series [1] (setting [6]) is 15.7 nM. The EC50 in series [2] (setting [7]) is over 30000 nM; in series [4] (setting [8]), 9.6 nM. For the same molecule, in series [3], the “Metabolic Stability Study M = mouse” value came to 18.4 µL/min/mg. In addition, the “Metabolic Stability Study H = human” value in series [5] came out at 15.2 µL/min/mg.

For `COc1cc(NC(=O)N(O)C(C)c2ccccc2)ccc1S(=O)(=O)Cc1ccc2c(c1)CN(C)C2` (stereo not drawn) [H1516, 1-hydroxy-3-(3-methoxy-4-(((2-methylisoindolin-5-yl)methyl)sulfonyl)phenyl)-1-(1-phenylethyl)urea], the IC50 in series [1] (setting [6]) was determined as 33.5 nM. Moreover, the values for the EC50 in series [2] (setting [7]) and in series [4] (setting [8]) were over 30000 nM and 11.3 nM, respectively. Further, the “Metabolic Stability Study M = mouse” value in series [3] worked out at 35.1 µL/min/mg. Besides, the “Metabolic Stability Study H = human” value in series [5] came to 65.2 µL/min/mg.

Turning to `COc1cc(S(=O)(=O)Cc2ccc3c(c2)CNC3)ccc1NC(=O)N(O)C(C)c1ccccc1` (stereo not drawn) [H1517, 1-hydroxy-3-(4-((isoindolin-5-ylmethyl)sulfonyl)-2-methoxyphenyl)-1-(1-phenylethyl)urea], the 50% inhibitory concentration (IC50) in series [1] (setting [6]) was 10.5 nM. Also, the EC50 was over 30000 nM in series [2] (setting [7]) and 6.7 nM in series [4] (setting [8]). Also, the “Metabolic Stability Study M = mouse” value in series [3] came to 56.6 µL/min/mg. In addition, the “Metabolic Stability Study H = human” value in series [5] was found to be 25.6 µL/min/mg.

On to `COc1cc(S(=O)(=O)Cc2ccc3c(c2)CN(C)C3)ccc1NC(=O)N(O)C(C)c1ccccc1` (stereo not drawn) [H1518, 1-hydroxy-3-(2-methoxy-4-(((2-methylisoindolin-5-yl)methyl)sulfonyl)phenyl)-1-(1-phenylethyl)urea], for which the IC50 in series [1] (setting [6]) came to 27.4 nM. In addition, the EC50 is over 30000 nM in series [2] (setting [7]) and 7.8 nM in series [4] (setting [8]). Moreover, the “Metabolic Stability Study M = mouse” value in series [3] stood at 154.7 µL/min/mg. Moreover, the “Metabolic Stability Study H = human” value in series [5] was 151.1 µL/min/mg.

Regarding `CC(NC(=O)Nc1ccc(S(=O)(=O)Cc2ccc3c(c2)CNC3)cc1-c1cc[nH]n1)c1ccccc1` (stereo not drawn) [H1519, 1-(4-((isoindolin-5-ylmethyl)sulfonyl)-2-(1H-pyrazol-3-yl)phenyl)-3-(1-phenylethyl)urea], the IC50 in series [1] (setting [6]) is 12.1 nM. The EC50 is over 30000 nM in series [2] (setting [7]) and 4.6 nM in series [4] (setting [8]). Further, the “Metabolic Stability Study M = mouse” value in series [3] is 169.8 µL/min/mg. For the same molecule, the “Metabolic Stability Study H = human” value in series [5] worked out at 47.3 µL/min/mg.

`COc1cc(S(=O)(=O)Cc2ccc3c(c2)CCN(C)C3)ccc1NC(=O)N(O)C(C)c1cccc(Cl)c1Cl.O=C(O)C(F)(F)F` (stereo not drawn) [H1523, 1-(1-(2,3-dichlorophenyl)ethyl)-1-hydroxy-3-(2-methoxy-4-(((2-methyl-1,2,3,4-tetrahydroisoquinolin-6-yl)methyl)sulfonyl)phenyl)urea]: in series [1] (setting [6]), the IC50 was 4.92 nM. In addition, the results for the EC50 in series [2] (setting [7]) and in series [4] (setting [8]) were over 30000 nM and 2.1 nM, respectively. The “Metabolic Stability Study M = mouse” value in series [3] worked out at 155.5 µL/min/mg. The “Metabolic Stability Study H = human” value in series [5] was determined as 100.9 µL/min/mg.

The IC50 is the concentration that inhibits the measured activity by half.
